Laboratory results published in patent US9120787B2, “HIV replication inhibitors” (priority 2011, dated 2015).
pIC50: −log10 of the molar value.

Assays:
HIV-1Ba-L [1] = assay: Inhibition of virus replication in MAGI-CCR5 cells (β-galactosidase reporter); type: cell-based; details: HIV-1Ba-L in MAGI-CCR5 cells; for pIC50: 48 hours, β-galactosidase reporter expression, read-out: IC50
Procedure: (§1) The anti-viral activity of dihydropyrimidines was shown by inhibition of virus replication in MAGI-CCR5 cells. MAGI-CCR5 cells are derived from HeLa-CD4-LTR-β-galactosidase cells. The cells have been engineered to express high levels of CD4 and CCR5 and contain one copy of the HIV-1 LTR promoter driving expression of the β-galactosidase gene upon HIV-1 Tat transactivation. On the day preceding the assay, the cells were plated at 1.0×10^4 cells per well and maintained at 37° C. and 5% CO2 in a humidified incubator. Total cell count and viability was visually assessed using a hemacytometer and trypan blue exclusion.
Compounds were evaluated at six concentrations (triplicate wells/concentration). On the day of assay setup, compound dilutions were prepared at two-times (2×) the final concentrations. Media was decanted and wells were replenished with 50 μl of 2× compounds, followed by the addition of 50 μl of diluted virus. Identical uninfected assays were prepared for parallel cytotoxicity testing.
Evaluation of Dihydropyrimidines vs. HIV-1Ba-L in MAGI-CCR5 Cells

[2] = Cytotoxicity by MTS staining in uninfected MAGI-CCR5 cells; type: cell-based; details: human, read-out: TC50
Procedure: as §1, with “exclusion. Compounds were evaluated at six concentrations (triplicate wells/concentration). On the day of assay setup, compound dilutions were prepared at two-times (2×) the final concentrations. Media was decanted and wells were replenished with 50 μl of 2× compounds, followed by the addition of 50 μl of diluted virus. Identical uninfected assays were prepared for parallel cytotoxicity testing.” for “exclusion.”

HIV-1Ba-L [3] = assay: HIV-1Ba-L replication in PBMCs (supernatant RT end-point); details: HIV-1Ba-L in PBMCs, seven days, RT end-point
Procedure: Evaluation of Dihydropyrimidines vs. HIV-1Ba-L in Peripheral Blood Mononuclear Cells (PBMCs)
Cultures of pooled phytohemagglutinin stimulated peripheral blood mononuclear cells (PBMC) were seeded into a 96-well plate at plating density of 5×10^4 cells/well. Compounds were serially diluted into media in ½-log increments using a high test of […] and […] of each concentration (nine total concentrations). Cells were infected with HIV strains HIV-1Ba-L and NL4-3 at an MOI=0.1. The PBMCs were cultured for seven days in an humidified incubator maintained at 37° C., 5% CO2 atmosphere. At the assay end-point, the supernatant was collected and analyzed for reverse transcriptase activity. For the RT assay, tritiated thymidine triphosphate (3H-TTP, 80 Ci/mmol) was diluted 1:1 dH2O:Ethanol at 1 mCi/ml. Poly rA:oligo dT template:primer was prepared as a stock solution by combining 150 μl poly rA (20 mg/ml) with 0.5 mL oligo dT (20 units/ml) and 5.35 ml sterile dH2O followed by aliquoting (1.0 ml) and storage at −20° C. The RT reaction buffer contained of 125 ml 1.0 M EGTA, 125 ml dH2O, 125 ml 20% Triton X100, 50 ml 1.0 M Tris (pH 7.4), 50 ml 1.0 M DTT, and 40 ml 1.0 M MgCl2. The final reaction mixture was prepared by combining 1 part 3H-TTP, 4 parts dH2O, 2.5 parts poly rA:oligo dT stock and 2.5 parts reaction buffer. To each well, ten microliters of the reaction mixture and 15 μl of virus containing supernatant were added. The plates were incubated at 37° C. for 60 minutes. Following incubation, the reaction volume was spotted onto DE81 filter-mats, washed 5 times for 5 minutes each in a 5% sodium phosphate buffer or 2×SSC. […] were washed 2 times for 1 minute each in distilled water, 2 times for 1 minute each in 70% ethanol, and then dried. Incorporated radioactivity (counts per minute, CPM) was quantified using standard liquid scintillation techniques.

| Compound | TI (TC50/IC50) (HIV-1Ba-L [1]) | pIC50 (HIV-1Ba-L [1]; Human immunodeficiency virus 1) | CC50 at 48 h [2] [µM] | pIC50 (HIV-1Ba-L [1]) | pIC50 (HIV-1Ba-L [3]) |
| --- | --- | --- | --- | --- | --- |
| CC1=C(c2nc(-c3ccc(C#N)cc3)cs2)C(c2cccnc2Cl)NC(=O)N1 (centres unmarked) [Example 4] | C (C < 50.0 to 10.0) | 5.30 to 6.00 | ≥ 100 | – | – |
| CC1=C(c2nc(-c3ccc(C#N)cc3)cs2)C(c2cc3ccccc3nc2Cl)NC(=O)N1 (centres unmarked) [Example 5] | D (D < 10.0) | 4.00 to 5.30 | ≥ 100 | – | – |
| CC1=C(c2nc(-c3ccc(C#N)cc3)cs2)C(c2ccc3ccccc3n2)NC(=O)N1 (centres unmarked) [Example 6] | C (C < 50.0 to 10.0) | 5.30 to 6.00 | ≥ 100 | – | – |
| CC1=C(c2nc(-c3ccc(C#N)cc3)cs2)C(c2ccccn2)NC(=O)N1 (centres unmarked) [Example 7] | C (C < 50.0 to 10.0) | 5.30 to 6.00 | ≥ 100 | – | – |
| CC1=C(c2nc(-c3ccc(C#N)cc3)cs2)C(c2cccnc2)NC(=O)N1 (centres unmarked) [Example 8] | C (C < 50.0 to 10.0) | 5.30 to 6.00 | ≥ 100 | – | – |
| CC1=C(c2nc(-c3ccc(C#N)cc3)cs2)C(c2ccncc2)NC(=O)N1 (centres unmarked) [Example 9] | C (C < 50.0 to 10.0) | 5.30 to 6.00 | ≥ 100 | – | – |
| CC1=C(c2nc(-c3ccc(C#N)cc3)cs2)C(c2cc3ccccc3s2)NC(=O)N1 (centres unmarked) [Example 12] | C (C < 50.0 to 10.0) | 5.30 to 6.00 | ≥ 100 | – | – |
| CC1=C(c2nc(-c3ccc(C#N)cc3)cs2)C(c2cc(Br)cs2)NC(=O)N1 (centres unmarked) [Example 13] | D (D < 10.0) | 4.00 to 5.30 | ≥ 100 | – | – |
| CC1=C(c2nc(-c3ccc(C#N)cc3)cs2)C(c2cccs2)NC(=O)N1 (centres unmarked) [Example 14] | C (C < 50.0 to 10.0) | 4.00 to 5.30 | ≥ 100 | – | – |
| CC1=C(c2nc(-c3ccc(C#N)cc3)cs2)C(c2nccn2C)NC(=O)N1 (centres unmarked) [Example 16] | D (D < 10.0) | < 4.00 | ≥ 100 | – | – |
| CC1=C(c2nc(-c3ccc(C#N)cc3)cs2)C(c2cncc(F)c2)NC(=O)N1 (centres unmarked) [Example 20] | A (A = TI (TC50/IC50) ≧ 100.0) | > 6.00 | ≥ 100 | – | – |
| CC1=C(c2nc(-c3ccc(C#N)cc3)cs2)C(c2cc(=O)[nH]c(=O)[nH]2)NC(=O)N1 (centres unmarked) [Example 22] | D (D < 10.0) | < 4.00 | ≥ 100 | – | – |
| CC1=C(c2nc(-c3ccc(C#N)cc3)cs2)C(c2ccnc(Cl)c2)NC(=O)N1 (centres unmarked) [Example 24] | C (C < 50.0 to 10.0) | 4.00 to 5.30 | ≥ 100 | – | – |
| COc1ncccc1C1NC(=O)NC(C)=C1c1nc(-c2ccc(C#N)cc2)cs1 (centres unmarked) [Example 27] | C (C < 50.0 to 10.0) | 4.00 to 5.30 | ≥ 100 | – | – |
| COc1ncc(C2NC(=O)NC(C)=C2c2nc(-c3ccc(C#N)cc3)cs2)cn1 (centres unmarked) [Example 31] | C (C < 50.0 to 10.0) | 5.30 to 6.00 | ≥ 100 | – | – |
| COc1ncc(C2NC(=O)NC(C)=C2c2nc(-c3ccc(C#N)cc3)cs2)c(OC)n1 (centres unmarked) [Example 32] | D (D < 10.0) | 4.00 to 5.30 | ≥ 100 | – | – |
| CC1=C(c2nc(-c3cccs3)cs2)C(c2cccc(O)c2)NC(=O)N1 (centres unmarked) [Example 37] | D (D < 10.0) | 4.00 to 5.30 | ≥ 100 | – | – |
| COc1ccc(-c2csc(C3=C(C)NC(=O)NC3c3ccccc3)n2)cc1 (centres unmarked) [Example 39] | D (D < 10.0) | 4.00 to 5.30 | ≥ 100 | – | – |
| COc1ccc(-c2csc(C3=C(C)NC(=O)NC3c3ccc(Cl)nc3)n2)cc1 (centres unmarked) [Example 41] | D (D < 10.0) | 4.00 to 5.30 | 50 to 100 | – | – |

| Compound | TI (TC50/IC50) (HIV-1Ba-L [1]) | pIC50 (HIV-1Ba-L [1]; Human immunodeficiency virus 1) | CC50 at 48 h [2] [µM] | pIC50 (HIV-1Ba-L [1]) | pIC50 (HIV-1Ba-L [3]) |
| --- | --- | --- | --- | --- | --- |
| COc1ccc(-c2csc(C3=C(C)NC(=O)NC3c3cccc(C(F)(F)F)c3)n2)cc1 (centres unmarked) [Example 45] | D (D < 10.0) | < 4.00 | ≥ 100 | – | – |
| COc1ccc(-c2csc(C3=C(C)NC(=O)NC3c3cccc(O)c3)n2)cc1 (centres unmarked) [Example 46] | D (D < 10.0) | 4.00 to 5.30 | ≥ 100 | – | – |
| CC1=C(c2nc(-c3ccc(C#N)cc3)cs2)C(c2ccc(F)cc2)NC(=O)N1 (centres unmarked) [Example 49] | C (C < 50.0 to 10.0) | 5.30 to 6.00 | ≥ 100 | – | – |
| CC1=C(c2nc(-c3ccc(C#N)cc3)cs2)C(c2cccc(Cl)c2)NC(=O)N1 (centres unmarked) [Example 51] | C (C < 50.0 to 10.0) | 4.00 to 5.30 | ≥ 100 | – | – |
| CC1=C(c2nc(-c3ccc(C#N)cc3)cs2)C(c2ccc(OCc3ccccc3)cc2)NC(=O)N1 (centres unmarked) [Example 52] | C (C < 50.0 to 10.0) | 5.30 to 6.00 | ≥ 100 | – | – |
| CC1=C(c2nc(-c3ccc(C#N)cc3)cs2)C(c2cc(F)cc(F)c2)NC(=O)N1 (centres unmarked) [Example 53] | C (C < 50.0 to 10.0) | 5.30 to 6.00 | ≥ 100 | – | – |
| CC1=C(c2nc(-c3ccc(C#N)cc3)cs2)C(c2ccc(N(C)C)cc2)NC(=O)N1 (centres unmarked) [Example 54] | C (C < 50.0 to 10.0) | 4.00 to 5.30 | 50 to 100 | – | – |
| CC1=C(c2nc(-c3ccc(C#N)cc3)cs2)C(c2ccc([N+](=O)[O-])cc2)NC(=O)N1 (centres unmarked) [Example 55] | C (C < 50.0 to 10.0) | 4.00 to 5.30 | ≥ 100 | – | – |
| CC1=C(c2nc(-c3ccc(C#N)cc3)cs2)C(c2ccc(F)c(C#N)c2)NC(=O)N1 (centres unmarked) [Example 56] | C (C < 50.0 to 10.0) | 4.00 to 5.30 | ≥ 100 | – | – |
| CC1=C(c2nc(-c3ccc(C#N)cc3)cs2)C(c2ccc(C#N)c(F)c2)NC(=O)N1 (centres unmarked) [Example 57] | C (C < 50.0 to 10.0) | 4.00 to 5.30 | ≥ 100 | – | – |
| CC1=C(c2nc(-c3ccc(C#N)cc3)cs2)C(c2ccc(-c3ccccc3)cc2)NC(=O)N1 (centres unmarked) [Example 58] | C (C < 50.0 to 10.0) | 5.30 to 6.00 | ≥ 100 | – | – |
| CC1=C(c2nc(-c3ccc(C#N)cc3)cs2)C(c2ccc(F)c([N+](=O)[O-])c2)NC(=O)N1 (centres unmarked) [Example 60] | C (C < 50.0 to 10.0) | 4.00 to 5.30 | ≥ 100 | – | – |
| CC1=C(c2nc(-c3ccc(C#N)cc3)cs2)C(c2ccc(Cl)c(OC(F)(F)F)c2)NC(=O)N1 (centres unmarked) [Example 61] | D (D < 10.0) | 4.00 to 5.30 | ≥ 100 | – | – |
| CC1=C(c2nc(-c3ccc(C#N)cc3)cs2)C(c2cccc(OC(F)(F)F)c2)NC(=O)N1 (centres unmarked) [Example 62] | D (D < 10.0) | 4.00 to 5.30 | ≥ 100 | – | – |
| CC1=C(c2nc(-c3ccc(C#N)cc3)cs2)C(c2ccc(OC(F)(F)F)cc2)NC(=O)N1 (centres unmarked) [Example 63] | D (D < 10.0) | 4.00 to 5.30 | ≥ 100 | – | – |
| COc1cccc(C2NC(=O)NC(C)=C2c2nc(-c3ccc(C#N)cc3)cs2)c1 (centres unmarked) [Example 65] | C (C < 50.0 to 10.0) | 5.30 to 6.00 | ≥ 100 | – | – |
| CC1=C(c2nc(-c3cccc(C#N)c3)cs2)C(c2cccc(O)c2)NC(=O)N1 (centres unmarked) [Example 66] | D (D < 10.0) | 4.00 to 5.30 | 50 to 100 | – | – |
| Maraviroc [reference compound] | – | – | – | 9.22 | 8.05 |
